For data set [1], the system named is MDAMB453 cells. Nature of the data set: γH2AX formation and resolution kinetics (Western blot). As to conditions: 3 Gy; effect persisted at 24 hours. The data set is classed as cell-based, human. Background: In western blotting, separated proteins are transferred to a membrane and probed.
Data set [2] has as its system C4-2 prostate cancer cells. As to conditions: AR-positive cells; 2 Gy.
Experimental: (a) (Top) Cells were cultured in steroid-deprived media −/+ DHT for 24 hours and then treated with IR: mock (ϕ), 4 Gy, or 6 Gy. Cells were then supplemented with hormone-proficient media at 48 hours post-IR. […] (Bottom) Cells were cultured in hormone-proficient media for 24 hours without or with enzalutamide (ENZ) and then treated with IR; mock (ϕ) or 4 Gy. Error bars represent normalized s.e.m of at least three experiments. […] Error bars represent normalized s.e.m of at least three experiments and the Student's t-test was used for statistical analysis. *, P<0.05. […] Error bars represent s.e.m of at least three experiments and the Student's t-test was used for statistical analysis. *, P<0.05. (d) Cells were cultured in hormone-proficient (FBS) media for 24 hours −/+ ENZ and then treated with IR: mock (ϕ 3 Gy (HMC18 and MDAMB453), or 2 Gy (C4-2). Cells were cultured in steroid-deprived media for 48 hours, treated −/+ DHT for 24 hours, and then treated with IR: mock (ϕ), 3 Gy (HMC18 and MDAMB453), or 2 Gy (C4-2). γH2AX, HDAC1, and actin levels were measured at the indicated time points. Relative intensity of γH2AX was calculated by ImageJ64. (e) MDAMB453 cells were cultured in steroid-replete, steroid-deficient, or steroid-deficient with 1 nM DHT for 24 hours, then treated with irradiation. Cells were harvested and expression of γDNAPKcs was analyzed. […]
Data set [3] concerns MDAMB453 cells. As to conditions: steroid-deprived media supplemented with 1 nM DHT for 24 hours.
Experimental: (d) Cells were cultured in hormone-proficient (FBS) media for 24 hours −/+ ENZ and then treated with IR: mock (ϕ 3 Gy (HMC18 and MDAMB453), or 2 Gy (C4-2). Cells were cultured in steroid-deprived media for 48 hours, treated −/+ DHT for 24 hours, and then treated with IR: mock (ϕ), 3 Gy (HMC18 and MDAMB453), or 2 Gy (C4-2). γH2AX, HDAC1, and actin levels were measured at the indicated time points. Relative intensity of γH2AX was calculated by ImageJ64. (e) MDAMB453 cells were cultured in steroid-replete, steroid-deficient, or steroid-deficient with 1 nM DHT for 24 hours, then treated with irradiation. Cells were harvested and expression of γDNAPKcs was analyzed.
Whole cell lysates were prepared using M-PER lysis buffer and clarified by centrifugation. Proteins were separated by SDS-PAGE and transferred onto 0.45 μM nitrocellulose membranes (Maine Manufacturing; Sanford, Me.). After primary antibody incubation for 1-2 hours at room temperature, washings, and incubation with secondary antibodies, blots were developed with a chemoluminescence system (Amersham/GE Healthcare). For γH2AX measurements, proteins were transferred onto 0.2 μM nitrocellulose (Bio-Rad).
The phosphorylation of DNAPKcs on Ser2056 was examined, which is indicative of activated DNAPKcs, in MDAMB453 cells.
Data set [4] relates to MCF7, BT474, CAMA1, HCC202, MDAMB453, HMC18 cells. Nature of the data set: Growth survival assay after IR across several breast cancer cell lines. The class given is cell-based, human. As to conditions: only in cell lines that expressed AR, independent of ER and ErbB2 activity.
Experimental: (a) (Top) Cells were cultured in steroid-deprived media −/+ DHT for 24 hours and then treated with IR: mock (ϕ), 4 Gy, or 6 Gy. Cells were then supplemented with hormone-proficient media at 48 hours post-IR. Cell number was determined on day 14-21. (Bottom) Cells were cultured in hormone-proficient media for 24 hours without or with enzalutamide (ENZ) and then treated with IR; mock (ϕ) or 4 Gy. Error bars represent normalized s.e.m of at least three experiments. (b) MCF7, BT474, CAMA1, HCC202, and MDAMB453 cells were treated with ENZ, ENZ+IR, DHT, or DHT+IR as in (a). HMC18 cells were treated similarly but were profiled by clonogenic survival assays. […]
(§2) Cells were plated using a Multidrop Combi liquid handler (Thermo Fisher) in at least quadruplicates for each time point at three cell densities (range 25-225 cells per well) in a white 384-well plate (Corning, N.Y.). […] Relative luminescence units were measured using an Envision multilabel plate reader (Perkin Elmer) with a measurement time of 0.1 seconds. Luminescence signal is proportional to the amount of ATP present. […] The luminescence signal was plotted as a function of cell density and a cell density within the linear range for luminescence (or growth) was selected to generate integral survival for each cell line. […]
Data set [5] deals with MDAMB453 cells. Nature of the data set: Neutral comet assay. As to conditions: pretreated 24 hours prior to 15 Gy of irradiation; ENZ 20 μM. The class given is cell-based, human. How it is done: (§1) Single-cell gel electrophoresis was conducted in alkaline or neutral buffer according to the manufacturer's instructions, Trevigen (Gaithersburg, Md.). Slides were blinded and enumerated by a single user.

For data set [6], the system named is MDAMB453 cells. Nature of the data set: Growth survival assay after IR with DHT or ENZ pretreatment. The data set is classed as cell-based, human.
Experimental: (a) (Top) Cells were cultured in steroid-deprived media −/+ DHT for 24 hours and then treated with IR: mock (ϕ), 4 Gy, or 6 Gy. Cells were then supplemented with hormone-proficient media at 48 hours post-IR. Cell number was determined on day 14-21. (Bottom) Cells were cultured in hormone-proficient media for 24 hours without or with enzalutamide (ENZ) and then treated with IR; mock (ϕ) or 4 Gy. Error bars represent normalized s.e.m of at least three experiments. (b) MCF7, BT474, CAMA1, HCC202, and MDAMB453 cells were treated with ENZ, ENZ+IR, DHT, or DHT+IR as in (a). […] Error bars represent normalized s.e.m of at least three experiments and the Student's t-test was used for statistical analysis. *, P<0.05. […]
as §2
The next data set deals with HMC18 cells. Nature of the data set: γH2AX formation and resolution kinetics (Western blot). The class given is cell-based, human. As to conditions: AR-negative cells; 3 Gy.
The test system of a further data set is BT474 cells. Nature of the data set: Neutral comet assay. As to conditions: irradiated (10 Gy) after 24 hours of treatment with ENZ (20 μM). The data set is classed as cell-based, human. How it is done: FIG. 16: AR regulates DNA damage and repair in AR, ER positive cells.
as §1

Data set [7] relates to MDAMB453 orthotopic xenografts. Nature of the data set: MDAMB453 orthotopic xenograft study.
Experimental: (g) MDAMB453 cells were orthotopically injected into the mammary gland of NSG mice and block randomized into one of four treatment arms as shown. Tumor volume was measured daily. Error bars represent normalized s.e.m of at least seven mice in each treatment arm. *, P<0.05 compared with all other treatment conditions based on ANOVA and Tukey Contrasts. **, P<0.05 for interaction based on two-way ANOVA. […] This cohort received ENZ at 25 mg kg^−1. (i) Average weight for each arm in both cohorts was measured weekly. Data are expressed as the means±s.e. of at least seven mice in each treatment arm.
Female NSG mice, 6-8 weeks of age, were obtained from the Cleveland Clinic Biological Resources Unit facility. All mouse studies were conducted under a protocol approved by the Cleveland Clinic Institutional Animal Care and Use Committee MDAMB453 cells were resuspended in serum free media and injected into the inguinal mammary gland. Once tumors reached 200 mm^3, mice were block randomized and assigned to vehicle, enzalutamide, vehicle plus radiotherapy, or enzalutamide plus radiotherapy. Two cohorts consisting of these four arms underwent treatment. Vehicle consisted of a volume of 5 mL per kg of PEG-400 solution containing 1.5%/0 of DMSO for cohort 1 and 2.5% DMSO for cohort 2 via oral gavage daily. Cohort 1 received enzalutamide at 15 mg kg^−1 and cohort 2 received enzaluatmide at 25 mg kg^−1. Radiotherapy was delivered to a dose of 1.5 Gy in three fractions once tumor size reached 250 mm^3. Treatment was not blinded to the investigator. Tumor volume was measured daily. Mice were sacrificed once their tumors reached an approximate size of 1,000 mm^3 or at treatment days 21-28. The significance of the difference between treatment groups was assessed by one-way and the interaction between drug and radiation was measured by two-way ANOVA.

With `C[C@]12CCC(=O)C[C@@H]1CC[C@@H]1[C@@H]2CC[C@]2(C)[C@@H](O)CC[C@@H]12` [DHT, Dihydrotestosterone], in the data set with MDAMB453 cells [1], the “Levels of γH2AX after irradiation” value was “decreased”. Further, the γH2AX resolution entry in data set [2] is reported as “hastened γH2AX resolution”. The “γDNAPKcs levels following irradiation” value in the data set with MDAMB453 cells [3] was “maintained γDNAPKcs at similar levels to those cells grown in the steroid-replete media”. Besides, the “Protection or sensitization to radiation” value in data set [4] is listed as “protection”. In the data set with MDAMB453 cells [5], the “DNA damage (double-strand breaks)” value is “decreased”. Also, the “Cell growth after radiation” value with MDAMB453 cells [6] (DHT re-supplementation in steroid-deprived media before radiation, IR 4 or 6 Gy) was “dose dependent rescue of cell growth”.
With `CNC(=O)c1ccc(N2C(=S)N(c3ccc(C#N)c(C(F)(F)F)c3)C(=O)C2(C)C)cc1F` [ENZ, enzalutamide], the “Kinetics of γH2AX formation and resolution” value in the data set with HMC18 cells was “unaffected”. In the data set with MDAMB453 cells [1], the “Levels of γH2AX after irradiation” value was “increased shortly after irradiation”. In addition, the Double-strand breaks result in the data set with BT474 cells is on record as “increased double-strand breaks”. Also, the “Protection or sensitization to radiation” value in [4] is listed as “sensitization”. Besides, in the data set on MDAMB453 cells [5], the “DNA damage (double-strand breaks)” value was “increased DNA damage”. In addition, the “Tumor growth, ENZ alone” value in data set [7] (15 mg kg^−1, used alone) is reported as “no effects on tumor growth”. Moreover, in [7] (15 mg kg^−1 plus radiotherapy), the “Tumor suppression, interaction with radiotherapy” value was “interactive tumor suppression with radiotherapy”. Moreover, the “Tumor growth, ENZ” value in data set [7] (25 mg kg^−1) is “Suppression of tumor growth”. Besides, the “Body weight loss during the course of treatment” value in data set [7] (ENZ 25 mg kg^−1 and radiation) is roughly 10%. The “Tumor growth, combination with ionizing radiation” value in data set [7] (ENZ at 15 mg kg^−1 or 25 mg kg^−1 plus ionizing radiation) is “more effective suppression of tumor growth than either modality alone”. In the data set on MDAMB453 cells [6] (hormone-proficient media, ENZ 24 hours before IR 4 Gy, compared to vehicle), the “Cell number after radiation” value was “decreased cell number compared to vehicle alone”.

The values are drawn from patent publication US10391173B2, “Anti-ar agent and radiation therapy for androgen receptor positive cancer” (The Cleveland Clinic Foundation, priority 2016, dated 2019).
